Data from patent US12371426B2, “Pyridazine derivatives as SMARCA2/4 degraders” (Aurigene Discovery Technologies Limited, priority 2018, dated 2025).

System: NCI-H929 cells
Assay: Anti proliferative activity in NCI-H929 cell line by Cell Titer Glo assay
Assay type: cell-based
Settings: Homo sapiens, 72 h, 3 days compound incubation, CellTiter Glo, read-out: Anti-proliferative activity IC50 group (NCI-H929 cells)
Experimental: Determination of Anti Proliferative Activity of Compounds in NCI-H929 and NCI-H838 Cell Lines by Cell Titer Glo® (promega) assay:
NCI-H929 (ATCC CRL-9068) or NCI-H838 (ATCC CRL-5844) cells were seeded in 96 well plate flat black clear bottom plates (Corning, Cat. No 3904) using complete RPMI-1640 media. Next day, compounds listed in the present invention were added to cells from 10 mM stocks made in DMSO (Sigma Cat no. D2650). Each concentration of compound was tested in triplicate with DMSO concentration at a final percentage not exceeding 0.3 in the cells. After the compound incubation (3 days for H929 and 8 days for H838) assay was terminated using 50 μl of CellTiter Glo® reagent (Promega, Cat. no G7572). CellTiter Glo® Luminescent reagent determines the number of viable cells based on quantitation of ATP present which is an indicator of cell number and metabolic activity. Luminescence readings were taken in Victor-3 instrument. Percent inhibition of proliferation was calculated using formula, % inhibition=100−(luminescence value of test/luminescence value of DMSO control)*100. DMSO control (0%)=Cells in complete media with DMSO; blank=Media alone containing DMSO. IC50 was calculated using graph pad prism software.
Herein group “A” refers to IC50 value lower than 1 μM, “B” refers to IC50 value between 1-10 μM (both inclusive) and “C” refers to IC50 value higher than 10 μM or less than 50% activity at 10 μM.

Row | SMILES | IC50
1 | Nc1nnc(-c2ccccc2O)cc1N1CCC(NC(=O)CCCCCCCCCC(=O)Nc2cccc3c2CN(C2CCC(=O)NC2=O)C3=O)CC1 (centres unmarked) [Compound 18] | > 10 µM
2 | Nc1nnc(-c2ccccc2O)cc1N1CCC(C(=O)NCCOCCOCCOCCOCC(=O)Nc2cccc3c2C(=O)N(C2CCC(=O)NC2=O)C3=O)CC1 (centres unmarked) [Compound 8] | > 10 µM
3 | Nc1nnc(-c2ccccc2O)cc1N1CCN(C(=O)COCC(=O)Nc2cccc3c2C(=O)N(C2CCC(=O)NC2=O)C3=O)CC1 (centres unmarked) [Compound 29] | > 10 µM
4 | Cc1ncsc1-c1ccc([C@H](C)NC(=O)[C@@H]2C[C@@H](O)CN2C(=O)[C@@H](NC(=O)CCCC(=O)N2CCN(c3cc(-c4ccccc4O)nnc3N)CC2)C(C)(C)C)cc1 [Compound 114] | > 10 µM
5 | Cc1ncsc1-c1ccc([C@H](C)NC(=O)[C@@H]2C[C@@H](O)CN2C(=O)[C@@H](NC(=O)CN2CCN(c3cc(-c4ccccc4O)nnc3O)CC2)C(C)(C)C)cc1 [Compound 54, (2S,4R)-4-hydroxy-1-((S)-2-(2-(4-(3-hydroxy-6-(2-hydroxyphenyl)pyridazin-4-yl)piperazin-1-yl)acetamido)-3,3-dimethylbutanoyl)-N—((S)-1-(4-(4-methylthiazol-5-yl)phenyl)ethyl)pyrrolidine-2-carboxamide] | > 10 µM
6 | Nc1nnc(-c2ccccc2O)cc1N1CCN(C(=O)CCCCCCC(=O)Nc2cccc3c2CN(C2CCC(=O)NC2=O)C3=O)CC1 (centres unmarked) [Compound 26] | > 10 µM
7 | Cc1ncsc1-c1ccc(CNC(=O)[C@@H]2C[C@@H](O)CN2C(=O)[C@@H](NC(=O)CCCC(=O)NC2CCN(c3cc(-c4ccccc4O)nnc3N)CC2)C(C)(C)C)cc1 [Compound 20] | > 10 µM
8 | Nc1nnc(-c2ccccc2O)cc1N1CCN(C(=O)COCC(=O)Nc2cccc3c2CN(C2CCC(=O)NC2=O)C3=O)CC1 (centres unmarked) [Compound 28] | > 10 µM
9 | Cc1ncsc1-c1ccc(CNC(=O)[C@@H]2C[C@@H](O)CN2C(=O)[C@@H](NC(=O)COCCOCCOCCOCCNC(=O)C2CCN(c3cc(-c4ccccc4O)nnc3N)CC2)C(C)(C)C)cc1 [Compound 3] | > 10 µM
10 | Nc1nnc(-c2ccccc2O)cc1N1CCN(C(=O)CCCC(=O)Nc2cccc3c2CN(C2CCC(=O)NC2=O)C3=O)CC1 (centres unmarked) [Compound 25] | > 10 µM
11 | Cc1ncsc1-c1ccc(CNC(=O)[C@@H]2C[C@@H](O)CN2C(=O)[C@@H](NC(=O)CCCCCCC(=O)NC2CCN(c3cc(-c4ccccc4O)nnc3N)CC2)C(C)(C)C)cc1 [Compound 21] | > 10 µM
12 | Nc1nnc(-c2ccccc2O)cc1N1CCC(NC(=O)COCC(=O)Nc2cccc3c2CN(C2CCC(=O)NC2=O)C3=O)CC1 (centres unmarked) [Compound 15] | > 10 µM
13 | COc1ccccc1-c1cc(N2CCN(CC(=O)N[C@H](C(=O)N3C[C@H](O)C[C@H]3C(=O)N[C@@H](C)c3ccc(-c4scnc4C)cc3)C(C)(C)C)CC2)c(N)nn1 [Compound 45] | > 10 µM
14 | Cc1ncsc1-c1ccc(CNC(=O)[C@@H]2C[C@@H](O)CN2C(=O)[C@@H](NC(=O)COCC(=O)NC2CCN(c3cc(-c4ccccc4O)nnc3N)CC2)C(C)(C)C)cc1 [Compound 14] | > 10 µM
15 | Cc1ncsc1-c1ccc(CNC(=O)[C@@H]2C[C@@H](O)CN2C(=O)[C@@H](NC(=O)CCCC(=O)N2CCN(c3cc(-c4ccccc4O)nnc3N)CC2)C(C)(C)C)cc1 [Compound 33] | > 10 µM
16 | Cc1ncsc1-c1ccc(CNC(=O)[C@@H]2C[C@@H](O)CN2C(=O)[C@@H](NC(=O)COCCN2CCN(c3cc(-c4ccccc4O)nnc3N)CC2)C(C)(C)C)cc1 [Compound 53, (2S,4R)-1-((S)-2-(2-(2-(4-(3-amino-6-(2-hydroxyphenyl)pyridazin-4-yl)piperazin-1-yl)ethoxy)acetamido)-3,3-dimethylbutanoyl)-4-hydroxy-N-(4-(4-methylthiazol-5-yl)benzyl)pyrrolidine-2-carboxamide] | > 10 µM
17 | Cc1ncsc1-c1ccc([C@H](C)NC(=O)[C@@H]2C[C@@H](O)CN2C(=O)[C@@H](NC(=O)CN2CCN(c3cc(C(=O)O)nnc3N)CC2)C(C)(C)C)cc1 [Compound 73, 6-amino-5-(4-(2-(((S)-1-((2S,4R)-4-hydroxy-2-(((S)-1-(4-(4-methylthiazol-5-yl)phenyl)ethyl)carbamoyl)pyrrolidin-1-yl)-3,3-dimethyl-1-oxobutan-2-yl)amino)-2-oxoethyl)piperazin-1-yl)pyridazine-3-carboxylic acid] | > 10 µM
18 | Cc1ncsc1-c1ccc(CNC(=O)[C@@H]2C[C@@H](O)CN2C(=O)[C@@H](NC(=O)COCCOCCOCCNC(=O)C2CCN(c3cc(-c4ccccc4O)nnc3N)CC2)C(C)(C)C)cc1 [Compound 4] | > 10 µM
19 | Cc1ncsc1-c1ccc(CNC(=O)[C@@H]2C[C@@H](O)CN2C(=O)[C@@H](NC(=O)COCC(=O)N2CCN(c3cc(-c4ccccc4O)nnc3N)CC2)C(C)(C)C)cc1 [Compound 31] | > 10 µM
20 | Cc1ncsc1-c1ccc([C@H](C)NC(=O)[C@@H]2C[C@@H](O)CN2C(=O)[C@@H](NC(=O)CN2CCN(c3cc(-c4ccccc4)nnc3N)CC2)C(C)(C)C)cc1 [Compound 46] | > 10 µM
21 | Nc1nnc(-c2ccccc2O)cc1N1CCC(NC(=O)CCCCCCC(=O)Nc2cccc3c2C(=O)N(C2CCC(=O)NC2=O)C3=O)CC1 (centres unmarked) [Compound 19] | > 10 µM
22 | Nc1nnc(-c2ccccc2O)cc1N1CCC(C(=O)NCCOCCOCCOCC(=O)Nc2cccc3c2CN(C2CCC(=O)NC2=O)C3=O)CC1 (centres unmarked) [Compound 12] | > 10 µM

Next, values leading:

Row | IC50 | SMILES
23 | > 10 µM | Nc1nnc(-c2ccccc2O)cc1N1CCN(C(=O)CCCCCCCCCC(=O)Nc2cccc3c2CN(C2CCC(=O)NC2=O)C3=O)CC1 (centres unmarked) [Compound 27]
24 | > 10 µM | Nc1nnc(-c2ccccc2O)cc1N1CCC(C(=O)NCCOCCOCC(=O)Nc2cccc3c2C(=O)N(C2CCC(=O)NC2=O)C3=O)CC1 (centres unmarked) [Compound 9]
25 | > 10 µM | Cc1ncsc1-c1ccc(CNC(=O)[C@@H]2C[C@@H](O)CN2C(=O)[C@@H](NC(=O)COCCOCCNC(=O)C2CCN(c3cc(-c4ccccc4O)nnc3N)CC2)C(C)(C)C)cc1 [Compound 2]
26 | > 10 µM | Cc1ncsc1-c1ccc([C@H](C)NC(=O)[C@@H]2C[C@@H](O)CN2C(=O)[C@@H](NC(=O)CN2CCN(c3ccnnc3N)CC2)C(C)(C)C)cc1 [Compound 67, (2S,4R)-1-((S)-2-(2-(4-(3-aminopyridazin-4-yl)piperazin-1-yl)acetamido)-3,3-dimethylbutanoyl)-4-hydroxy-N—((S)-1-(4-(4-methylthiazol-5-yl)phenyl)ethyl)pyrrolidine-2-carboxamide]
27 | > 10 µM | Nc1nnc(-c2ccccc2O)cc1N1CCC(NC(=O)COCC(=O)Nc2cccc3c2C(=O)N(C2CCC(=O)NC2=O)C3=O)CC1 (centres unmarked) [Compound 16]
28 | > 10 µM | Nc1nnc(-c2ccccc2O)cc1N1CCN(CC(=O)Nc2cccc3c2CN(C2CCC(=O)NC2=O)C3=O)CC1 (centres unmarked) [Compound 42]
29 | < 1 µM | Cc1ncsc1-c1ccc([C@H](C)NC(=O)[C@@H]2C[C@@H](O)CN2C(=O)[C@@H](NC(=O)CCCCC(=O)N2CCN(c3cc(-c4ccccc4O)nnc3N)CC2)C(C)(C)C)cc1 [Compound 110]
30 | 1 to 10 µM | Cc1ncsc1-c1ccc([C@H](C)NC(=O)[C@@H]2C[C@@H](O)CN2C(=O)[C@@H](NCC(=O)N2CCN(c3cc(-c4ccccc4O)nnc3N)CC2)C(C)(C)C)cc1 [Compound 49, (2S,4R)-1-((S)-2-((2-(4-(3-amino-6-(2-hydroxyphenyl)pyridazin-4-yl)piperazin-1-yl)-2-oxoethyl)amino)-3,3-dimethylbutanoyl)-4-hydroxy-N—((S)-1-(4-(4-methylthiazol-5-yl)phenyl)ethyl)pyrrolidine-2-carboxamide]
31 | < 1 µM | Cc1ncsc1-c1ccc([C@H](C)NC(=O)[C@@H]2C[C@@H](O)CN2C(=O)[C@@H](NC(=O)CCCCCCCC(=O)N2CCN(c3cc(-c4ccccc4O)nnc3N)CC2)C(C)(C)C)cc1 [Compound 111]
32 | 1 to 10 µM | Cc1ncsc1-c1ccc([C@H](C)NC(=O)[C@@H]2C[C@@H](O)CN2C(=O)[C@@H](NC(=O)CC2CCN(c3cc(-c4ccccc4F)nnc3N)CC2)C(C)(C)C)cc1 [Compound 97]
33 | 1 to 10 µM | Cc1ncsc1-c1ccc(CNC(=O)[C@@H]2C[C@H](O)CN2C(=O)[C@@H](NC(=O)CN2CCN(c3cc(-c4ccccc4O)nnc3N)CC2)C(C)(C)C)cc1 [Compound 105]
34 | 1 to 10 µM | Cc1ncsc1-c1ccc([C@H](C)NC(=O)[C@@H]2C[C@@H](F)CN2C(=O)[C@@H](NC(=O)CN2CCN(c3cc(-c4ccccc4O)nnc3N)CC2)C(C)(C)C)cc1 [Compound 107]
35 | 1 to 10 µM | Cc1ncsc1-c1ccc([C@H](C)NC(=O)[C@@H]2C[C@@H](O)CN2C(=O)[C@@H](NC(=O)CC2CN(c3cc(-c4ccccc4O)nnc3N)C2)C(C)(C)C)cc1 [Compound 104]
36 | 1 to 10 µM | Cc1ncsc1-c1ccc([C@H](C)NC(=O)[C@@H]2C[C@H](O)CN2C(=O)[C@@H](NC(=O)CN2CCN(c3cc(-c4ccccc4O)nnc3N)CC2)C(C)(C)C)cc1 [Compound 106]
37 | 1 to 10 µM | Cc1ncsc1-c1ccc([C@H](C)NC(=O)[C@@H]2C[C@@H](O)CN2C(=O)[C@@H](NC(=O)CCCCCNC(=O)C2CCN(c3cc(-c4ccccc4O)nnc3N)CC2)C(C)(C)C)cc1 [Compound 113]
38 | 1 to 10 µM | Cc1ncsc1-c1ccc([C@H](C)NC(=O)[C@@H]2C[C@H](O)CN2C(=O)[C@@H](NC(=O)CCCCCCC(=O)N2CCN(c3cc(-c4ccccc4O)nnc3N)CC2)C(C)(C)C)cc1 [Compound 115]
